pIC50: −log10 of the molar value. “And” between values parts separate entries of the source, which are not always exact repeats. Equal entries are not always repeated.
Biological target: T1, receptor interacting protein kinase 1 (GST-hRIPK1 (8-327)) (Homo sapiens, UniProt Q13546)
T1 construct: GST-hRIPK1 (8-327) enzyme was generated by Proteros GmbH by Baculovirus expression system
T1 sequence (Q13546 8-327): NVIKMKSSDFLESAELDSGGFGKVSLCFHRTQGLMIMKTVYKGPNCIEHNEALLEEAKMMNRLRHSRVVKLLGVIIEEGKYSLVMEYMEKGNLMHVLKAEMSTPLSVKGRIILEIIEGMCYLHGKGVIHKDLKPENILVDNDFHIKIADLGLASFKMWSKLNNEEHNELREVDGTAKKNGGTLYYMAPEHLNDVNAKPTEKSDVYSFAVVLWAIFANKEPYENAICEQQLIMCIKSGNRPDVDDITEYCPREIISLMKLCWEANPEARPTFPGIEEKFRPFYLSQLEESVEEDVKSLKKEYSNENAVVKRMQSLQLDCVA
Test: Fluorescent Polarization Binding (FP Binding) assay
Conditions: 10 nM GST-hRIPK1 (8-327), 5 nM fluorescent-labeled ligand, 30 min at RT
Method in brief: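 Displacement of 5 nM fluorescent ligand from 10 nM GST-hRIPK1 (8-327), 30 min at room temperature in pH 7.5 HEPES buffer, 1% DMSO. Fluorescence polarization read (ex 531/em 595 nm); IC50 fitted from percent inhibition and averaged over at least two independent experiments.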

Row | SMILES | pIC50
1 | CC(C)(C)C(=O)N1OCC[C@H]1c1ccc(F)c(C#N)c1 [Compound 153, 5-[(3S)-2-(2,2-dimethylpropanoyl)-1,2-oxazolidin-3-yl]-2-fluorobenzonitrile] | > 6.00
2 | CC(C)(COC(F)F)C(=O)N1OCC[C@H]1c1ccc(C#N)cc1 [Compound 154, 4-[(3S)-2-[3-(difluoromethoxy)-2,2-dimethylpropanoyl]-1,2-oxazolidin-3-yl]benzonitrile] | > 6.00
3 | CC1(C(=O)N2OCC[C@H]2c2ccc(F)cc2)CC(F)(F)C1 [Compound 155, (3S)-2-(3,3-difluoro-1-methylcyclobutane-carbonyl)-3-(4-fluorophenyl)-1,2-oxazolidine] | > 6.00
4 | CC(C)(C(=O)N1OCC[C@H]1c1ccc(F)cc1)N1CCC1 [Compound 156, 2-(azetidin-1-yl)-1-[(3S)-3-(4-fluorophenyl)-1,2-oxazolidin-2-yl]-2-methylpropan-1-one] | 5.00 to 6.00
5 | CC(C)(C)C(=O)N1OCCC1c1ccnnc1 (centres unmarked) [Compound 157, 2,2-dimethyl-1-[3-(pyridazin-4-yl)-1,2-oxazolidin-2-yl]propan-1-one] | 5.00 to 6.00
6 | N#Cc1ccc([C@@H]2CCON2C(=O)C2(C3CC3)CC2)cc1 [Compound 158, 4-[(3S)-2-(1-cyclopropylcyclopro-panecarbonyl)-1,2-oxazolidin-3-yl]benzonitrile] | > 6.00
7 | CC(C)(CC#N)C(=O)N1OCC[C@H]1c1ccc(F)cc1 [Compound 171, 4-[(3S)-3-(4-fluorophenyl)-1,2-oxazolidin-2-yl]-3,3-dimethyl-4-oxobutanenitrile] | > 6.00 and 7.96
8 | N#CC1(C(=O)N2OCC[C@H]2c2ccc(F)cc2)CC2(COC2)C1 [Compound 172, 6-[(3S)-3-(4-fluorophenyl)-1,2-oxazolidine-2-carbonyl]-2-oxaspiro[3.3]heptane-6-carbonitrile] | > 6.00
9 | [2H]C([2H])([2H])C(C(=O)N1OCC[C@H]1c1ccc(F)cc1)(C([2H])([2H])[2H])C([2H])([2H])[2H] [Compound 173, 1-[(3S)-3-(4-fluorophenyl)-1,2-oxazolidin-2-yl]-2,2-bis(^2H3)methyl(^2H3) propan-1-one] | > 6.00
10 | CC(C)(C)C(=O)N1OCC[C@H]1c1cncc(Cl)c1 [Compound 174, 1-[(3S)-3-(5-chloropyridin-3-yl)-1,2-oxazolidin-2-yl]-2,2-dimethylpropan-1-one] | > 6.00
11 | CC(C)(C)C(=O)N1OCC[C@H]1c1ccnc(C(F)F)c1 [Compound 175, 1-[(3S)-3-[2-(difluoromethyl)pyridin-4-yl]-1,2-oxazolidin-2-yl]-2,2-dimethylpropan-1-one] | > 6.00
12 | CC(C)(COC(F)(F)F)C(=O)N1OCC[C@H]1c1cncc(Cl)c1 [Compound 177, 1-[(3S)-3-(5-chloropyridin-3-yl)-1,2-oxazolidin-2-yl]-2,2-dimethyl-3-(trifluoromethoxy) propan-1-one] | > 6.00
13 | CC(C)(Cn1cccn1)C(=O)N1OCC[C@H]1c1ccc(F)cc1 [Compound 178, 1-[(3S)-3-(4-fluorophenyl)-1,2-oxazolidin-2-yl]-2,2-dimethyl-3-(1H-pyrazol-1-yl)propan-1-one] | > 6.00
14 | CC(C)(CC#N)C(=O)N1OCC[C@H]1c1ccc(C#N)cc1 [Compound 181, 4-[(3S)-2-(3-cyano-2,2-dimethylpropanoyl)-1,2-oxazolidin-3-yl]benzonitrile] | > 6.00
15 | CC(C)(C#N)C(=O)N1OCC[C@H]1c1ccc(F)cc1 [Compound 182, 3-[(3S)-3-(4-fluorophenyl)-1,2-oxazolidin-2-yl]-2,2-dimethyl-3-oxopropanenitrile] | > 6.00
16 | N#Cc1ccc([C@@H]2CCON2C(=O)C2(C(F)F)CC2)cc1 [Compound 187, 4-[(3S)-2-[1-(difluoromethyl)cyclo-propanecarbonyl]-1,2-oxazolidin-3-yl]benzonitrile] | > 6.00
17 | CC(C)(C)C(=O)N1OCC[C@H]1c1cc[nH]n1 [Compound 190, 2,2-dimethyl-1-[(3S)-3-(1H-pyrazol-5-yl)-1,2-oxazolidin-2-yl]propan-1-one] | > 6.00
18 | C[C@@]1(C(=O)N2OCC[C@H]2c2ccc(F)cc2)CCC(=O)N1 [Compound 191, (5S)-5-[(3S)-3-(4-fluorophenyl)-1,2-oxazolidine-2-carbonyl]-5-methylpyrrolidin-2-one] | > 6.00
19 | CC(C)(C)C(=O)N1OCC[C@H]1c1cc(C#N)ccn1 [Compound 192, 2-[(3S)-2-(2,2-dimethylpropanoyl)-1,2-oxazolidin-3-yl]pyridine-4-carbonitrile] | > 6.00
20 | CC(C)(C(=O)N1OCC[C@H]1c1ccc(F)cc1)C1CC1 [Compound 193, 2-cyclopropyl-1-[(3S)-3-(4-fluorophenyl)-1,2-oxazolidin-2-yl]-2-methylpropan-1-one] | > 6.00 and 8.30
21 | CC(C)(C(=O)N1OCC[C@H]1c1ccc(F)cc1)S(C)(=O)=O [Compound 194, 1-[(3S)-3-(4-fluorophenyl)-1,2-oxazolidin-2-yl]-2-methanesulfonyl-2-methylpropan-1-one] | 5.00 to 6.00
22 | Cc1ncc([C@@H]2CCON2C(=O)C(C)(C)C(F)F)cc1F [Compound 195, 3,3-difluoro-1-[(3S)-3-(5-fluoro-6-methylpyridin-3-yl)-1,2-oxazolidin-2-yl]-2*2-dimethylpropan-1-one] | > 6.00 and 8.00
23 | Cc1ncc([C@@H]2CCON2C(=O)C(C)(C)CC#N)cc1F [Compound 196, 4-[(3S)-3-(5-fluoro-6-methylpyridin-3-yl)-1,2-oxazolidin-2-yl]-3,3-dimethyl-4-oxobutanenitrile] | > 6.00 and 8.05
24 | Cn1cc([C@@H]2CCON2C(=O)C(C)(C)C(F)F)cn1 [Compound 198, (S)-3,3-difluoro-2,2-dimethyl-1-(3-(1-methyl-1H-pyrazol-4-yl)isoxazolidin-2-yl)propan-1-one] | > 6.00 and 7.29
25 | CC(C)(C(=O)N1OCC[C@H]1c1cncc(C#N)c1)C(F)F [Compound 200, (S)-5-(2-(3,3-difluoro-2,2-dimethylpropanoyl)isoxazolidin-3-yl)nicotinonitrile] | > 6.00 and 8.05
26 | CC(C)(C(=O)N1OCC[C@@H]1c1ccc(C#N)s1)C(F)F [Compound 203, 5-[(3R)-2-(3,3-difluoro-2,2-dimethylpropanoyl)-1,2-oxazolidin-3-yl]thiophene-2-carbonitrile] | > 6.00

Results, then the molecule that gave them:

Row | pIC50 | SMILES
27 | > 6.00 | O=C(N1OCC[C@H]1c1ccc(F)nc1)C1(C2CC2)CC1 [Compound 159, 5-[(3S)-2-(1-cyclopropylcyclopro-panecarbonyl)-1,2-oxazolidin-3-yl]-2-fluoropyridine]
28 | 5.00 to 6.00 | O=C(C1C2COCC21)N1OCC[C@H]1c1ccc(F)nc1 (stereo partly drawn) [Compound 160, 2-fluoro-5-[(3S)-2-{3-oxabicyclo[3.1.0]hexane-6-carbonyl}-1,2-oxazolidin-3-yl]pyridine]
29 | > 6.00 | [2H]C([2H])([2H])C(C(=O)N1OCC[C@H]1c1ccc(F)nc1)(C([2H])([2H])[2H])C([2H])([2H])[2H] [Compound 161, 1-[(3S)-3-(6-fluoropyridin-3-yl)-1,2-oxazolidin-2-yl]-2,2-bis(^2H3)methyI(^2H3) propan-1-one]
30 | > 6.00 | CC(C)(COC(F)(F)F)C(=O)N1OCC[C@H]1c1ccc(F)nc1 [Compound 164, 1-[(3S)-3-(6-fluoropyridin-3-yl)-1,2-oxazolidin-2-yl]-2,2-dimethyl-3-(trifluoromethoxy) propan-1-one]
31 | > 6.00 | CC(C)(CC#N)C(=O)N1OCC[C@H]1c1ccc(F)nc1 [Compound 165, 4-[(3S)-3-(6-fluoropyridin-3-yl)-1,2-oxazolidin-2-yl]-3,3-dimethyl-4-oxobutanenitrile]
32 | 5.00 to 6.00 | C[C@](O)(C(=O)N1OCC[C@H]1c1ccc(F)nc1)C(F)(F)F [Compound 166, (2S)-3,3,3-trifluoro-1-[(3S)-3-(6-fluoropyridin-3-yl)-1,2-oxazolidin-2-yl]-2-hydroxy-2-methylpropan-1-one]
33 | > 6.00 | O=C(C(C1CC1)C1CC1)N1OCC[C@H]1c1ccc(F)nc1 [Compound 167, 2,2-dicyclopropyl-1-[(3S)-3-(6-fluoropyridin-3-yl)-1,2-oxazolidin-2-yl]ethan-1-one]
34 | > 6.00 | O=C(N1OCC[C@H]1c1ccc(F)nc1)C1(C(F)F)CCC1 [Compound 168, 5-[(3S)-2-[1-(difluoromethyl)cyclo-butanecarbonyl]-1,2-oxazolidin-3-yl]-2-fluoropyridine]
35 | > 6.00 | CC(C)(C(=O)N1OCC[C@H]1c1ccc(F)nc1)C(F)F [Compound 169, 3,3-difluoro-1-[(3S)-3-(6-fluoropyridin-3-yl)-1,2-oxazolidin-2-yl]-2,2-dimethylpropan-1-one]
36 | > 6.00 | O=C(N1OCC[C@H]1c1ccc(F)nc1)C1(C(F)F)CC1 [Compound 170, 5-[(3S)-2-[1-(difluoromethyl)cyclo-propanecarbonyl]-1,2-oxazolidin-3-yl]-2-fluoropyridine]
37 | > 6.00 | CC(C)(COC(F)(F)F)C(=O)N1OCC[C@H]1c1ccc(F)cc1 [Compound 176, 1-[(3S)-3-(4-fluorophenyl)-1,2-oxazolidin-2-yl]-2,2-dimethyl-3-(trifluoromethoxy) propan-1-one]
38 | > 6.00 | Cc1ccc([C@@H]2CCON2C(=O)C(C)(C)C(F)F)cn1 [Compound 202, 3,3-difluoro-2,2-dimethyl-1-[(3S)-3-(6-methylpyridin-3-yl)-1,2-oxazolidin-2-yl]propan-1-one]
